Series [1] deals with Liriomyza trifolii. In words: Insecticidal activity against Liriomyza trifolii in kidney beans assessed as control of pests measured after 12 to 22 days of seed application. It counts as functional, organism-based.
The test system of series [2] is Spodoptera littoralis. Kind of series: Insecticidal activity against Spodoptera littoralis assessed as mortality by greenhouse assay. It is filed as functional.
Series [3] is described as follows: Aqueous solubility of the compound at pH 7. It counts as physicochemical. The conditions noted are these: buffer.
In series [4] the test system is Myzus persicae. In words: Insecticidal activity against Myzus persicae (green peach aphid) assessed as mortality by greenhouse assay. It is filed as functional.
Series [5] has as its system Spodoptera littoralis. Kind of series: Insecticidal activity against Spodoptera littoralis in maize assessed as control of pests measured after 12 to 22 days of seed application. It counts as functional, organism-based.
Series [6] can be described thus: Lipophilicity, log P of the compound. It counts as physicochemical. The settings on record: octanol/water.
Series [7] relates to Agrotis ipsilon. In words: Insecticidal activity against Agrotis ipsilon in maize assessed as control of pests measured after 12 to 22 days of seed application. It is filed as functional, organism-based.
Series [8] relates to Plutella xylostella. In words: Insecticidal activity against Plutella xylostella (diamondback moth) assessed as mortality by greenhouse assay. It counts as functional.
Series [9] relates to Phyllotreta striolata. In words: Insecticidal activity against Phyllotreta striolata in radish assessed as control of pests measured after 12 to 22 days of seed application. It counts as functional, organism-based.
Series [10] has as its system Spodoptera frugiperda. Kind of series: Insecticidal activity against Spodoptera frugiperda (fall armyworm) in maize assessed as control of pests measured after 12 to 22 days of seed application. It counts as functional, organism-based.

In brackets after ≈: the same amount, converted by molar mass. Activity calls are given as the source filed them. No cut-off for these calls is given here.

The term EC80 denotes the concentration at which the effect reaches the 80% level. As a reminder, the logP is a log measure of how a compound divides between an organic and an aqueous phase.

For the compound `Cc1cc(Cl)cc(C(=O)NC(C)(C)CS(C)(=N)=O)c1NC(=O)c1cc(OCC(F)(F)F)nn1-c1ncccc1Cl` (centres undefined), the result in series [1], in series [5], in [7], in series [9] and in series [10] was Active. In addition, the EC80 in series [2] amounted to 0.8 µg/mL (≈ 1.29 µM); in series [4] it was 12.5 µg/mL (≈ 20.1 µM); in [8] it was 0.2 µg/mL (≈ 0.322 µM). The solubility in [3] was 295 ppm. Also, in series [6], the logP is 2.4.
With `CNC(=O)c1cc(Cl)cc(C)c1NC(=O)c1cc(Br)nn1-c1ncccc1Cl` [CHLORANTRANILIPROLE], the values for the EC80 in series [2], in [4] and in series [8] were 0.8 µg/mL (≈ 1.66 µM), 50 µg/mL (≈ 103 µM) and 0.8 µg/mL (≈ 1.66 µM), respectively. Besides, the solubility in [3] turned out to be 1 ppm. This compound returned a logP in [6] of 2.8.
Regarding `CN=S(=O)(CC(C)NC(=O)c1cc(C#N)cc(C)c1NC(=O)c1cc(Br)nn1-c1ncccc1Cl)NN(C)C` (centres undefined), the EC80 in [2] was 50 µg/mL (≈ 78.5 µM); in series [4], 12.5 µg/mL (≈ 19.6 µM); in series [8] it was 12.5 µg/mL (≈ 19.6 µM). The solubility in series [3] is on record as 48 ppm. In [6], this compound came in with a logP of 2.1.
Take `CNC(=O)c1cc(C#N)cc(C)c1NC(=O)c1cc(Br)nn1-c1ncccc1Cl` [CYANTRANILIPROLE]: the results for the EC80 in series [2], in series [4] and in [8] were 3.1 µg/mL (≈ 6.54 µM), 12.5 µg/mL (≈ 26.4 µM) and 0.8 µg/mL (≈ 1.69 µM), respectively. In series [3], this compound displayed a solubility of 14 ppm. This compound showed a logP in [6] of 1.9.
Regarding `CN=S(=O)(CC(C)NC(=O)c1cc(C#N)cc(C)c1NC(=O)c1cc(Br)nn1-c1ncccc1Cl)NOC` (centres undefined), the 80% effect concentration (EC80) in series [2] was 50 µg/mL (≈ 80.1 µM); in series [4] it was more than 200 µg/mL; in series [8] it was 3.1 µg/mL (≈ 4.97 µM). The compound also gave a solubility in [3] of 17 ppm. In [6], this compound returned a log partition coefficient (logP) of 1.8.
On to `CNS(=N)(=O)CC(C)NC(=O)c1cc(Cl)cc(C)c1NC(=O)c1cc(Br)nn1-c1ncccc1Cl` (centres undefined), for which the concentration for an effect of 80% (EC80) in [2] was determined as 12.5 µg/mL (≈ 20.7 µM); in series [4] it was 200 µg/mL (≈ 331 µM); in [8], 3.1 µg/mL (≈ 5.14 µM). Moreover, the solubility in [3] amounted to 95 ppm. The compound further gave a log partition coefficient (logP) in series [6] of 2.
The like results for `Cc1cc(C#N)cc(C(=O)NC(C)(C)CS(C)(=O)=NC#N)c1NC(=O)c1cc(Br)nn1-c1ncccc1Cl` (centres undefined) were, in that order, 50 µg/mL (≈ 80.9 µM), 200 µg/mL (≈ 324 µM), 0.8 µg/mL (≈ 1.29 µM), 59 ppm and 1.7.
The like results for `Cc1cc(C#N)cc(C(=O)NC(C)(C)CS(C)(=O)=N[N+](=O)[O-])c1NC(=O)c1cc(Br)nn1-c1ncccc1Cl` (centres undefined) were, in that order, 12.5 µg/mL (≈ 19.6 µM), 200 µg/mL (≈ 314 µM), 0.8 µg/mL (≈ 1.25 µM), 29 ppm and 1.9.
On to `Cc1cc(Cl)cc(C(=O)NC(C)(C)CS(C)(=O)=NC#N)c1NC(=O)c1cc(C(F)(F)F)nn1-c1ncccc1Cl` (centres undefined), for which the EC80 stood at 0.8 µg/mL (≈ 1.3 µM) in [2], 200 µg/mL (≈ 324 µM) in series [4] and 0.8 µg/mL (≈ 1.3 µM) in series [8]. Moreover, in [3], the solubility is 14 ppm. In [6], the logP was found to be 2.9.
Regarding `CNS(=N)(=O)CC(C)NC(=O)c1cc(C#N)cc(C)c1NC(=O)c1cc(Br)nn1-c1ncccc1Cl` (centres undefined), the 80% effect concentration (EC80) in [2] turned out to be 50 µg/mL (≈ 84.2 µM); in series [4], 200 µg/mL (≈ 337 µM); in [8], 12.5 µg/mL (≈ 21 µM). The compound further returned a solubility in [3] of 96 ppm. Besides, the logP in [6] was determined as 1.1.
The like results for `Cc1cc(C#N)cc(C(=O)NC(C)(C)CS(C)(=N)=O)c1NC(=O)c1cc(OCC(F)(F)F)nn1-c1ncccc1Cl` (centres undefined) were, in that order, 0.8 µg/mL (≈ 1.31 µM), 3.1 µg/mL (≈ 5.07 µM), 0.2 µg/mL (≈ 0.327 µM), 361 ppm and 1.6.
In the case of `Cc1cc(C(F)(C(F)(F)F)C(F)(F)F)ccc1NC(=O)c1cccc(I)c1C(=O)NC(C)(C)CS(C)(=O)=O` [FLUBENDIAMIDE], the EC80 was 3.1 µg/mL (≈ 4.54 µM) in [2], more than 200 µg/mL in series [4] and 3.1 µg/mL (≈ 4.54 µM) in series [8]. Moreover, in [3], the solubility stood at 0.3 ppm.
Take `Cc1cc(Cl)cc(C(=O)NC(C)(C)CS(C)(=N)=O)c1NC(=O)c1cc(C(F)(F)F)nn1-c1ncccc1Cl` (centres undefined): the outcome in [1], in series [5], in series [7], in [9] and in series [10] was Active. For the same compound, the EC80 in series [2] was found to be 0.8 µg/mL (≈ 1.35 µM); in [4], 50 µg/mL (≈ 84.5 µM); in [8] it was 0.8 µg/mL (≈ 1.35 µM). Besides, the solubility in series [3] was determined as 196 ppm. The same compound returned a logP in series [6] of 2.4.
For `Cc1cc(C#N)cc(C(=O)NC(C)(C)CS(C)(=N)=O)c1NC(=O)c1cc(Br)nn1-c1ncccc1Cl` (centres undefined), the EC80 in [2] stood at 0.8 µg/mL (≈ 1.35 µM); in series [4], 12.5 µg/mL (≈ 21.1 µM); in series [8], 0.8 µg/mL (≈ 1.35 µM). Besides, the solubility in series [3] is given as 42 ppm. Moreover, the logP in [6] was 1.1.
